Data taken from the NIST ThermoML archive (doi:10.1021/je060411g).

Test: molar heat capacity at constant pressure
Details: 101.33 kPa

CC(C)C(C)O (stereo unspecified) [3-methyl-2-butanol]
Details | molar heat capacity at constant pressure [J/K/mol]
84.8 K, Glass | 64.32
85.35 K, Glass | 64.92
86.61 K, Glass | 65.12
87.96 K, Glass | 65.91
88.5 K, Glass | 66.12
88.57 K, Glass | 66.46
89.76 K, Glass | 68.19
90.5 K, Glass | 68.52
91.72 K, Glass | 69.65
92.44 K, Glass | 69.5
93.66 K, Glass | 70.82
94.37 K, Glass | 70.42
95.6 K, Glass | 72.69
96.3 K, Glass | 72.33
97.54 K, Glass | 73.76
98.24 K, Glass | 73.35
99.48 K, Glass | 75.44
100.17 K, Glass | 75.01
101.42 K, Glass | 76.81
102.11 K, Glass | 76.45
103.37 K, Glass | 78.23
104.06 K, Glass | 77.94
105.32 K, Glass | 79.77
106 K, Glass | 79.31
107.95 K, Glass | 80.89
109.9 K, Glass | 82.57
110.42 K, Glass | 83.46
110.85 K, Glass | 82.24
111.85 K, Glass | 84.29
112.07 K, Glass | 84.44
113.8 K, Glass | 85.97
114.04 K, Glass | 86.22
115.76 K, Glass | 87.69
116 K, Glass | 87.96
117.71 K, Glass | 89.53
119.67 K, Glass | 91.4
121.44 K, Glass | 93.27
121.62 K, Glass | 93.55
122.07 K, Glass | 94.36
123.27 K, Glass | 95.77
123.58 K, Glass | 95.92
125.24 K, Glass | 98.99
125.53 K, Glass | 98.88
127.2 K, Glass | 102.7
127.49 K, Glass | 103.22
129.14 K, Glass | 107.45
134.82 K, Liquid | 136.07
135.09 K, Liquid | 140.35
136.74 K, Liquid | 138.24
137.01 K, Liquid | 138.6
138.7 K, Liquid | 138.95
138.97 K, Liquid | 138.85
140.69 K, Liquid | 139.38
140.95 K, Liquid | 139.07
142.67 K, Liquid | 139.54
142.93 K, Liquid | 139.3
144.66 K, Liquid | 139.76
144.91 K, Liquid | 139.63
146.65 K, Liquid | 140.2
146.9 K, Liquid | 139.94
148.63 K, Liquid | 140.52
148.88 K, Liquid | 140.31
150.86 K, Liquid | 140.31
152.85 K, Liquid | 140.9
154.84 K, Liquid | 141.35
156.74 K, Liquid | 142.41
156.82 K, Liquid | 141.64
158.09 K, Liquid | 142.73
158.81 K, Liquid | 142.09
160.22 K, Liquid | 143.13
160.79 K, Liquid | 142.41
162.32 K, Liquid | 143.63
162.78 K, Liquid | 142.9
164.37 K, Liquid | 144.12
164.76 K, Liquid | 143.07
166.39 K, Liquid | 145.96
166.75 K, Liquid | 143.51
168.38 K, Liquid | 145.62
168.73 K, Liquid | 143.97
170.37 K, Liquid | 146.06
170.72 K, Liquid | 144.62
172.37 K, Liquid | 145.89
172.7 K, Liquid | 145.15
174.37 K, Liquid | 146.25
174.69 K, Liquid | 145.71
176.36 K, Liquid | 147.39
176.67 K, Liquid | 146.37
178.34 K, Liquid | 147.47
178.66 K, Liquid | 147.29
180.33 K, Liquid | 147.95
180.64 K, Liquid | 148.09
182.33 K, Liquid | 148.74
182.63 K, Liquid | 149.07
184.32 K, Liquid | 149.21
184.61 K, Liquid | 149.6
186.31 K, Liquid | 149.62
186.6 K, Liquid | 150.32
188.3 K, Liquid | 149.99
188.59 K, Liquid | 150.72
190.3 K, Liquid | 150.82
190.58 K, Liquid | 151.56
192.29 K, Liquid | 151.37
192.57 K, Liquid | 152.24
194.28 K, Liquid | 152
194.56 K, Liquid | 152.93
196.27 K, Liquid | 152.73
196.55 K, Liquid | 153.74
198.26 K, Liquid | 153.78
198.54 K, Liquid | 154.39
200.25 K, Liquid | 154.7
200.53 K, Liquid | 155.32
202.24 K, Liquid | 155.43
202.51 K, Liquid | 156.2
204.23 K, Liquid | 156.17
204.5 K, Liquid | 157.11
206.21 K, Liquid | 156.91
206.48 K, Liquid | 158.08
208.2 K, Liquid | 157.81
208.47 K, Liquid | 159.14
210.18 K, Liquid | 158.87
210.46 K, Liquid | 160.17
212.17 K, Liquid | 159.83
214.15 K, Liquid | 160.86
216.12 K, Liquid | 161.85
218.08 K, Liquid | 163.18
220.04 K, Liquid | 164.39
221.99 K, Liquid | 165.9
223.93 K, Liquid | 167.49
225.86 K, Liquid | 168.89
227.79 K, Liquid | 170.77
229.71 K, Liquid | 172.05
231.62 K, Liquid | 173.69
233.53 K, Liquid | 175.59
235.43 K, Liquid | 177.3
237.32 K, Liquid | 178.86
239.2 K, Liquid | 180.5
241.08 K, Liquid | 182.29
242.96 K, Liquid | 184.02
244.82 K, Liquid | 185.3
246.68 K, Liquid | 187.07
248.53 K, Liquid | 188.6
250.37 K, Liquid | 190.8
252.21 K, Liquid | 192.67
254.03 K, Liquid | 194.25
255.85 K, Liquid | 196.29
257.67 K, Liquid | 198.36
259.47 K, Liquid | 200.36
261.27 K, Liquid | 202.49
263.06 K, Liquid | 204.59
264.84 K, Liquid | 206.44
266.62 K, Liquid | 208.79
268.39 K, Liquid | 210.85
270.15 K, Liquid | 212.97
271.91 K, Liquid | 215.09
273.66 K, Liquid | 217.48
275.41 K, Liquid | 219.86
277.14 K, Liquid | 222.01
278.87 K, Liquid | 224.26
280.6 K, Liquid | 226.68
282.31 K, Liquid | 228.97
284.02 K, Liquid | 230.98
285.72 K, Liquid | 233.15
287.42 K, Liquid | 234.9
289.11 K, Liquid | 237.64
290.79 K, Liquid | 239.38
292.47 K, Liquid | 241.39
294.15 K, Liquid | 243.38
295.81 K, Liquid | 245.77
297.47 K, Liquid | 247.45
299.13 K, Liquid | 249.65
300.78 K, Liquid | 250.94
